According to patent publication US11345669B2, “Urea derivatives and methods of use thereof” (NodThera Limited, priority 2017, dated 2022):
Where two headings read alike, the source gives them in different places.

Tested on: IL1-β release upon NLRP3 activation in peripheral blood mononuclear cells (PBMC)
Assay: PBMC IC50 Determination Assay
Format: cell-based
Settings: Homo sapiens
Protocol: PBMC IC50 Determination Assay
The compounds of the present disclosure were tested for their inhibitory activity against IL1-β release upon NLRP3 activation in peripheral blood mononuclear cells (PBMC).
Isolated cells were seeded into the wells of a 96-well plate and incubated for 3 h with lipopolysaccharide (LPS). Following medium exchange, the compounds of the present disclosure were added (a single compound per well) and the cells were incubated for 30 min. Next, the cells were stimulated either with ATP (5 mM) or nigericin (10 μM) for 1 h and the cell culture media from the wells were collected for further analysis.
The release of IL-1β into the media was determined by a quantitative detection of IL-1β in 5 the media using an IL-1β enzyme-linked immunosorbent assay (ELISA) Ready-SET-Go!, eBioscience cat. […] Subsequently, plates were blocked with blocking buffer for 1 h at room temperature (rt) and after washing with a buffer (PBS with 0.05% Tween-20) incubated with protein standard and culture media. […] Plates were washed and incubated with HRP-streptavidin for 30 min at rt and washed again. The signal was developed after addition of 3,39,S,59-tetramethylbenzidine-peroxidase (TMB) until color appeared and the reaction was stopped by 2 M H2SO4. A microplate spectrophotometer (BioTek) was used to detect signals with 450 nm. The detection range of IL-1β ELISA was […].

[1] = PBMC from buffy coats, LPS 3 h, compound 30 min, then ATP (5 mM) or nigericin (10 μM) for 1 h, IL-1β in media by ELISA, read-out: PBMCs, IC50

SMILES	IC50 [1] [µM]	IC50 (PBMC, read-out: PBMCs, IC50, μM) [µM]
COC(=O)[C@@H](CN)NC(=O)Nc1c2c(cc3c1CCC3)CCC2 [Example 2N, Methyl(2R)-3-amino-2-{[(1,2,3,5,6,7-hexahydro-s-indacen-4-yl)carbamoyl]amino}propanoate]	9.3	
COC(=O)C(Cc1cccc(-c2cc[nH]n2)c1)NC(=O)Nc1c2c(cc3c1CCC3)CCC2 (stereo not shown) [Example 2J, Methyl 2-{[(1,2,3,5,6,7-hexahydro-s-indacen-4-yl)carbamoyl]amino}-3-[3-(1H-pyrazol-5-yl)phenyl]propanoate]	0.41	
O=C(Nc1c2c(cc3c1CCC3)CCC2)NC(Cc1ncccn1)C(=O)O (stereo not shown) [Example 2AJ, 2-{[(1,2,3,5,6,7-hexahydro-s-indacen-4-yl)carbamoyl]amino}-3-(pyrimidin-2-yl)propanoic acid]	15	
COC(=O)C(Cc1cccc(CO)c1)NC(=O)Nc1c2c(cc3c1CCC3)CCC2 (stereo not shown) [Example 2G, Methyl2-{[(1,2,3,5,6,7-hexahydro-s-indacen-4-yl)carbamoyl]amino}-3-[3-(hydroxymethyl)phenyl]propanoate]	1.4	
COC(=O)[C@@H](Cc1cccnc1)NC(=O)Nc1c2c(cc3c1CCC3)CCC2 [Example 2H, Methyl (2R)-2-{[(1,2,3,5,6,7-hexahydro-s-indacen-4-yl)carbamoyl]amino}-3-(pyridin-3-yl)propanoate]	0.88	
COC(=O)[C@@H](Cc1cccnn1)NC(=O)Nc1c2c(cc3c1CCC3)CCC2 [Example 2YY, Methyl (2R)-2-{[(1,2,3,5,6,7-hexahydro-s-indacen-4-yl)carbamoyl]amino}-3-(pyridazin-3-yl)propanoate]	3.3	
O=C(Nc1c2c(cc3c1CCC3)CCC2)N[C@H](Cc1cccc(-c2cc[nH]n2)c1)C(=O)O [Example 2V, (2R)-2-{[(1,2,3,5,6,7-hexahydro-s-indacen-4-yl)carbamoyl]amino}-3-[3-(1H-pyrazol-3-yl)phenyl]propanoic acid]	0.52	
COC(=O)CNC(=O)Nc1c2c(cc3c1CCC3)CCC2 [Example 2EE, methyl 2-{[(1,2,3,5,6,7-hexahydro-s-indacen-4-yl)carbamoyl]amino}acetate]	3.7	
COC(=O)[C@@H](Cc1cccc(-c2cc[nH]n2)c1)NC(=O)Nc1c2c(cc3c1CCC3)CCC2 [Example 2L, Methyl (2R)-2-{[(1,2,3,5,6,7-hexahydro-s-indacen-4-yl)carbamoyl]amino}-3-[3-(1H-pyrazol-3-yl)phenyl]propanoate]	0.14	
COC(=O)[C@@H](Cc1cccc(O)c1)NC(=O)Nc1c2c(cc3c1CCC3)CCC2 [Example 2K, Methyl(2R)-2-{[(1,2,3,5,6,7-hexahydro-s-indacen-4-yl)carbamoyl]amino}-3-(3-hydroxyphenyl)propanoate]	1.3	
O=C(Nc1c2c(cc3c1CCC3)CCC2)N[C@H](Cc1cccnc1)C(=O)OCC1CC1 [Example 2OO, cyclopropylmethyl(2R)-2-{[(1,2,3,5,6,7-hexahydro-s-indacen-4-yl)carbamoyl]amino}-3-(pyridin-3-yl)propanoate]	0.47	
CCOC(=O)[C@@H](Cc1cccnc1)NC(=O)Nc1c2c(cc3c1CCC3)CCC2 [Example 2RR, ethyl(2R)-2-{[(1,2,3,5,6,7-hexahydro-s-indacen-4-yl)carbamoyl]amino}-3-(pyridin-3-yl)propanoate]	1.7	
COC(=O)[C@@H](CCSC)NC(=O)Nc1c2c(cc3c1CCC3)CCC2 [Example 2O, Methyl(2R)-2-{[(1,2,3,5,6,7-hexahydro-s-indacen-4-yl)carbamoyl]amino}-4-(methylsulfanyl)butanoate]	3.2	
COC(=O)[C@@H](CO)NC(=O)Nc1c2c(cc3c1CCC3)CCC2 [Example 2JJ, methyl(2R)-2-{[(1,2,3,5,6,7-hexahydro-s-indacen-4-yl)carbamoyl]amino}-3-hydroxypropanoate]	26	
COC(=O)[C@@H](Cc1cccc(CO)c1)NC(=O)Nc1c2c(cc3c1CCC3)CCC2 [Example 2M, Methyl(2R)-2-{[(1,2,3,5,6,7-hexahydro-s-indacen-4-yl)carbamoyl]amino}-3-[3-(hydroxymethyl)phenyl]propanoate]	0.38	
COC(=O)[C@@H](Cc1ccc(O)cc1)NC(=O)Nc1c2c(cc3c1CCC3)CCC2 [Example 2Z, methyl(2R)-2-{[(1,2,3,5,6,7-hexahydro-s-indacen-4-yl)carbamoyl]amino}-3-(4-hydroxyphenyl)propanoate]	0.1	
CCOC(=O)C(Cc1ncco1)NC(=O)Nc1c2c(cc3c1CCC3)CCC2 (stereo not shown) [Example 2AC, Ethyl 2-{[(1,2,3,5,6,7-hexahydro-s-indacen-4-yl)carbamoyl]amino}-3-(1,3-oxazol-2-yl)propanoate]	0.67	

SMILES	IC50 [1] [µM]	IC50 (PBMC, read-out: PBMCs, IC50, μM) [µM]
COC(=O)[C@@H](Cc1cncc(OC)c1)NC(=O)Nc1c2c(cc3c1CCC3)CCC2 [Example 2WW, Methyl (2R)-2-{[(1,2,3,5,6,7-hexahydro-s-indacen-4-yl)carbamoyl]amino}-3-(5-methoxypyridin-3-yl)propanoate]	0.45	
O=C(Nc1c2c(cc3c1CCC3)CCC2)N[C@H](Cc1ccccc1)C(=O)O [Example 2SS, (2R)-2-{[(1,2,3,5,6,7-hexahydro-s-indacen-4-yl)carbamoyl]amino}-3-phenylpropanoic acid]	14	
CCOC(=O)C(Cc1cnoc1)NC(=O)Nc1c2c(cc3c1CCC3)CCC2 (stereo not shown) [Example 2ZZ, Ethyl 2-{[(1,2,3,5,6,7-hexahydro-s-indacen-4-yl)carbamoyl]amino}-3-(1,2-oxazol-4-yl)propanoate]	3.3	
COC(=O)C(Cn1cc(C)cn1)NC(=O)Nc1c2c(cc3c1CCC3)CCC2 (stereo not shown) [Example 2TT, Methyl 2-{[(1,2,3,5,6,7-hexahydro-s-indacen-4-yl)carbamoyl]amino}-3-(4-methyl-1H-pyrazol-1-yl)propanoate]	14	
CCOC(=O)C(Cc1ccnnc1)NC(=O)Nc1c2c(cc3c1CCC3)CCC2 (stereo not shown) [Example 2AG, Ethyl 2-{[(1,2,3,5,6,7-hexahydro-s-indacen-4-yl)carbamoyl]amino}-3-(pyridazin-4-yl)propanoate]	6	
COC(=O)[C@@H](Cc1cccc(N2CCCC2=O)c1)NC(=O)Nc1c2c(cc3c1CCC3)CCC2 [Example 2R, Methyl(2R)-2-{[(1,2,3,5,6,7-hexahydro-s-indacen-4-yl)carbamoyl]amino}-3-[3-(2-oxopyrrolidin-1-yl)phenyl]propanoate]	0.33	
O=C(Nc1c2c(cc3c1CCC3)CCC2)N[C@H](Cc1cccnc1)C(=O)O [Example 2LL, (2R)-2-{[(1,2,3,5,6,7-hexahydro-s-indacen-4-yl)carbamoyl]amino}-3-(pyridin-3-yl)propanoic acid]	2	
COC(=O)[C@@H](CC(N)=O)NC(=O)Nc1c2c(cc3c1CCC3)CCC2 [Example 2BB, methyl(2R)-3-carbamoyl-2-{[(1,2,3,5,6,7-hexahydro-s-indacen-4yl)carbamoyl]amino}propanoate]	32	
COC(=O)C[C@@H](NC(=O)Nc1c2c(cc3c1CCC3)CCC2)C(=O)OC [Example 2W, 1,4-dimethyl(2R)-2-{[(1,2,3,5,6,7-hexahydro-s-indacen-4-yl)carbamoyl]amino}butanedioate]	2.9	
COC(=O)[C@@H](Cc1cccc(C#N)c1)NC(=O)Nc1c2c(cc3c1CCC3)CCC2 [Example 2E, Methyl(2R)-3-(3-cyanophenyl)-2-{[(1,2,3,5,6,7-hexahydro-s-indacen-4-yl)carbamoyl]amino}propanoate]	1.7	
COC(=O)C(Cc1cccc(O)c1)NC(=O)Nc1c2c(cc3c1CCC3)CCC2 (stereo not shown) [Example 2A, Methyl2-{[(1,2,3,5,6,7-hexahydro-s-indacen-4-yl)carbamoyl]amino}-3-(3-hydroxyphenyl)propanoate]	2.5	
CC(C)OC(=O)CNC(=O)Nc1c2c(cc3c1CCC3)CCC2 [Example 2AA, propan-2-yl 2-{[(1,2,3,5,6,7-hexahydro-s-indacen-4-yl)carbamoyl]amino}acetate]	1.8	
COC(=O)[C@@H](Cc1cnccn1)NC(=O)Nc1c2c(cc3c1CCC3)CCC2 [Example 2AF, Methyl (2R)-2-{[(1,2,3,5,6,7-hexahydro-s-indacen-4-yl)carbamoyl]amino}-3-(pyrazin-2-yl)propanoate]	0.46	
COC(=O)CC[C@@H](NC(=O)Nc1c2c(cc3c1CCC3)CCC2)C(=O)OC [Example 2S, 1,5-dimethyl(2R)-2-{[(1,2,3,5,6,7-hexahydro-s-indacen-4-yl)carbamoyl]amino}pentanedioate]		3.5
COC(=O)C(Cc1cccc(C(C)=O)c1)NC(=O)Nc1c2c(cc3c1CCC3)CCC2 (stereo not shown) [Example 2C, Methyl 3-(3-acetylphenyl)-2-{[(1,2,3,5,6,7-hexahydro-s-indacen-4-yl)carbamoyl]amino}propanoate]	0.35	
O=C(Nc1c2c(cc3c1CCC3)CCC2)N[C@H](Cc1cccnc1)C(=O)OC1CCC1 [Example 2NN, cyclobutyl (2R)-2-{[(1,2,3,5,6,7-hexahydro-s-indacen-4-yl)carbamoyl]amino}-3-(pyridin-3-yl)propanoate]	0.6	
COC(=O)[C@@H](Cc1cccs1)NC(=O)Nc1c2c(cc3c1CCC3)CCC2 [Example 2CC, methyl (2R)-2-{[(1,2,3,5,6,7-hexahydro-s-indacen-4-yl)carbamoyl]amino}-3-(thiophen-2-yl)propanoate]	0.5	
